Experimental data: patent US12516130B2, “Single-domain antibody for targeting prostate specific membrane antigen (PSMA)” (NATIONAL INSTITUTE FOR BIOTECHNOLOGY IN THE NEGEV LTD., priority 2019, dated 2026)
Residue numbers refer to the chain shown, from its start.

Legend:
[1] = system: PC3-PIP and PC3-flu cells; test: Confocal imaging of NB7cys, DOX and NB7cysDOX internalization; assay type: cell-based; details: 15 min, 1.5 μg/ml DOX or molar equivalent
PC3-PIP cells [2] = test: Cell quantification assay; assay type: cell-based; details: 24 h, 1.5 μg/ml DOX or equivalent molar amount
Procedure: PC3-PIP cells (5×10^4) were seeded in 24-well plates. […] After 24 h of treatment, the number of cells in each well was counted using the Countess II automated cell counter (Invitrogen).

PC3-PIP cells [3] = test: Cell viability assay (propidium iodide, FACS); assay type: cell-based; details: 24 h, 1.5 μg/ml DOX or equivalent molar amount
Procedure: PC3-PIP cells were grown and treated as described in the cell quantification assay section, above. The cells were harvested, incubated with 0.5 μg propidium iodide (PI; Biolegend), and their fluorescence intensity was measured in a BD C6 flow cytometer.

PC3-PIP cells [4] = test: Mitochondrial potential assay (TMRE); assay type: cell-based; details: 24 h, 1.5 μg/ml DOX or equivalent molar amount
Procedure: PC3-PIP cells (2×10^4) were seeded on 96-well plates. […] After 24 h, tetramethylrhodamine ethyl ester (TMRE; Abcam, UK) was added according to the protocol provided by the manufacturer. Fluorescence intensity was measured at an excitation wavelength of 549 nm and an emission wavelength of 575 nm.

PC3-PIP xenografts [5] = test: In vivo tumor growth inhibition; design: species or system athymic nude mice; details: fewer than in saline group
Procedure: PC3-PIP xenografts were grown in athymic nude mice, as described in the in vivo optical imaging section, above. When the average tumor size reached 200 mm^3, the mice were divided into three groups (controlled for average tumor size), each subjected to a different treatment: 150 μl saline (n=7), 2 mg/kg DOX (n=8), or 1.4 mg/kg (˜40 μg) NB7cysDOX (n=8). The treatment was administered to the tail vein twice a week for three consecutive weeks. At each sample point, the tumor volume was calculated (V=0.5×L×W×H), as previously described (Tomayko and Reynolds, 1989). A mouse was euthanized when tumor volume reached 1,500 mm^3 or when its physical condition deteriorated, according to the guidelines of the Committee for the Ethical Care and Use of Animals in Research at BGU. The estimated tumor volume prior to euthanasia and the rate-based T/C were determined as described previously (Aston et al., 2017).

PC3-PIP xenografts [6] = test: Histology of treated tumors (IF, H&E, TUNEL); details: 4 d after treatment termination
Excerpt: Four days following the final dose of each treatment in the in vivo tumor growth inhibition assay, the mice were euthanized, and their xenografts were fixated in 4% formaldehyde and embedded in paraffin. Tumor sections (5 μm thickness) were subjected to hematoxylin and eosin (H&E) staining, TUNEL assay, and immunofluorescence (IF), as previously described (Pittala et al., 2018, Fischer et al., 2008). […] 4′,6-diamidino-2-phenylindole (DAPI) was used for nuclei staining. […] TUNEL, PI, and IF were visualized in a confocal microscope.

PC3-PIP (PSMA+) cells = test: FACS cell binding assay, PC3-PIP cells; assay type: cell-based; details: effect of K43PrK mutation
Procedure: Once the cells reached 70% confluence, 10^5 cells were added to each well of 96-well U-shaped bottom plates (Greiner Bio-One, Austria), centrifuged at 150 g for 5 min, and washed with PBSA (namely, PBS+1 g/1 BSA). NBs were added to the cells in concentrations of 0.1, 0.5, 2, 5, 10, 20, 50, 100, 500, or 1000 nM. The cells were incubated with the NBs for 2 h, followed by three PBSA washing steps. An anti-His antibody conjugated to fluorescein isothiocyanate (FITC) (Invitrogen) was then added at a dilution of 1:100, incubated with the cells for 1 h, and washed three times with PBSA. The cells were kept on ice throughout the experiment. The fluorescence of each sample was measured using an Accuri C6 flow cytometry analyzer (BD Biosciences, CA). Each experimental condition was repeated three times. To generate a titration curve, the value for each sample was determined using the equation:
[formula] where Fsample is the mean fluorescence value, Flow is the fluorescence at the lowest concentration for PC3-PIP cells, and Fhigh is the fluorescence at the highest concentration for PC3-PIP cells. A binding curve was generated using GraphPad Prism 5.0.

`COc1cccc2c1C(=O)c1c(O)c3c(c(O)c1C2=O)C[C@@](O)(C(=O)CO)C[C@@H]3O[C@H]1C[C@H](N)[C@H](O)[C@H](C)O1` [DOX, doxorubicin] was tested. Which “cellular distribution in PC3-PIP and PC3-flu cells” value [1] did it give?
The value was “diffused spontaneously into both PC3-PIP and PC3-flu cells”.

And the “number of cells versus untreated cells” value (PC3-PIP cells [2])?
Its value is “significantly reduced the number of cells in the well”.

And the “PI signal (late apoptosis and necrosis)” value (PC3-PIP cells [3])?
Its value is “considerably increased the signal”.

And the “mitochondrial membrane potential (TMRE signal)” value (PC3-PIP cells [4])?
The value was “similarly reduced the mitochondrial membrane potential”.

And the “mice reaching maximal tumor size, DOX versus NB7cysDOX groups” value (PC3-PIP xenografts [5])?
The value was “not significantly different from each other”.

What about the “H&E staining of tumors” value (PC3-PIP xenografts [6]) of the same molecule?
The value was “necrotic, fewer, and with large vacancies between cells”.

What about the “TUNEL assay of tumors” value (PC3-PIP xenografts [6]) of the same molecule?
Its value is “significant apoptosis”.

Which “mitochondrial membrane potential (TMRE signal)” value (PC3-PIP cells [4]) does the source give for “Carbonyl cyanide 4-(trifluorornethoxy) phenythydrazone [FCCP]” here?
Its value is “significantly reduced the mitochondrial membrane potential”.

B1: NB7 K43PrK: NB7 with lysine K43 changed to the non-natural amino acid PrK (protein)
VHH: QVQLQESGGGSVQAGGSLRLSCTAPGYTDSNYYMSWFRQAPGXEREWVAGVNTGRGSTSYADSVKGRFTISQDNAKNTMFLQMNSLKPEDTAIYYCAVAACHFCDSLPKTQDEYILWGQGTQVTVSSAAAYPYDVPDYGS
modifications: non-natural residues; left off: small tags and cut ends
notes: NB7 with lysine K43 changed to the non-natural amino acid PrK
For B1, which “binding to PC3-PIP cells versus NB7, FACS” value (PC3-PIP (PSMA+) cells) is on record?
Its value is “no significant change in binding”.

B2: NB7cys: NB7 with an added cysteine in the C-terminus (protein)
VHH (part 1 of 2): B1 VHH with X43K
VHH (part 2 of 2): C
modifications: left off: small tags and cut ends
notes: NB7 with an added cysteine in the C-terminus
With B2 as the molecule, how does the “PI signal (late apoptosis and necrosis)” value (PC3-PIP cells [3]) read?
The value was “did not change the PI signal”.
